Source: a melting point compilation (Tetko et al.; mined from patent text by program, amines drawn as free bases though some values may be those of a salt)

| melting point [°C] | Structure (SMILES) |
| --- | --- |
| 94 to 101 | CC(CN1CC(=O)N(CN2CCN(c3ccccc3)CC2)C(=O)C1)N1CC(=O)N(CN2CCN(c3ccccc3)CC2)C(=O)C1 (centres undefined) |
| 114 to 116 | COc1ccc(Cc2ccc(NC3=NCCN3)cc2)cc1 |
| 156 | N#Cc1cc(C(F)(F)F)cc(Br)c1-c1nc(C(F)(F)C(F)(F)F)c(Br)c(=O)[nH]1 |
| 228 | CCOC(=O)c1c(Cl)c2cc(Cl)cnc2[nH]c1=O |
| 159 to 160 | CC(CN1CCC(NC(=O)C2CC2)CC1)c1ccc(C(=O)c2ccccc2)cc1 (centres undefined) |
| 98.8 to 99.4 | COCOc1cc(C(F)(F)F)ccc1-c1cc(Oc2ccc3cccnc3c2)ncn1 |
| 145 to 146 | O=c1c(Br)c(N2CCOCC2)oc2ccccc12 |
| 119 to 121 | COC(=O)c1nc(Cl)c(Cl)c(N)c1OC |
| 170 to 172 | COc1cc(COc2nn(-c3ccccc3)cc2/C=C/c2nc(C(=O)O)cs2)ccc1OCc1nc(-c2ccco2)oc1C |
| 89 to 96 | Cc1noc(NS(=O)(=O)c2ccccc2-c2ccc(-c3ncco3)cc2CC(=O)N(C)C)c1C |
| 251 to 254 | CC1(C)Oc2ccc(C3=NNC(=O)CC3)cc2NC1=O |
| 166 to 168 | CCCCCC1CCc2cc(C(N)=O)ccc2C1 (centres undefined) |
| 112 to 113 | CCc1c(Sc2ccccc2)n(CC2CC=CC2)c(=O)[nH]c1=O |
| 92 to 93 | Cc1nc2ccccc2c2ccc(F)cc12 |
| 115 to 119 | CCCCc1ccc(NCCS(=O)(=O)NCCCOc2cccc(CN3CCCCC3)c2)cc1 |
| 173 to 176 | COc1ccc(N(C(=O)CN2C(=O)C(Cc3nn(Cc4ccccc4)c4c3CCCC4)C(=O)N(c3ccccc3)c3ccccc32)C(C)C)cc1 (centres undefined) |
| 156 | COc1ccc(-n2nc(C(C)(C)C)cc2NC(=O)c2nccc3cc(Oc4cc(NC(C)=O)ncn4)ccc23)cc1 |
| 92 to 93 | C=CCN(C(=O)OCc1ccccc1)c1cc(F)c(-c2cccnc2)c(F)c1 |
| 98 | CC(=S)c1cncn1C(c1ccccc1)c1ccccc1 |
| 162 to 164 | O=C(Nc1ccc2cn[nH]c2c1)C(=O)N1CCC(Cc2ccc(F)cc2)CC1 |
| 189 | FC(F)(F)c1ccc(Cl)cc1CN1CCNc2ncc(-c3ccnc(N4CCNCC4)c3)cc21 |
| 68 to 70 | CCOC(=O)Nn1cccc1C(=O)c1ccccc1 |
| 100 to 102 | CCOC(=O)C(C(=O)OCC)c1n[nH]c(C)c1[N+](=O)[O-] |

| melting point [°C] | Structure (SMILES) |
| --- | --- |
| 130 | COc1cc2c(cc1OC)CC(=O)N(CCCN(C)C1CCc3cc(Cl)c(Cl)cc3C1)CC2 (centres undefined) |
| 168 to 171 | COc1ccc(C(NCCC2CCCCC2)c2cccc(Nc3c(N)c(=O)c3=O)c2)cc1 (centres undefined) |
| 192 | C=CC(=O)NCNC(=O)CCS(=O)(=O)Cl |
| 173 to 175 | NS(=O)(=O)c1ccc(-n2nc(C(F)(F)F)cc2-c2ccc([N+](=O)[O-])cc2)cc1 |
| 67 to 69 | Cc1cccc(C(=O)Cc2ccnc(NC(=O)c3ccccc3)c2)c1 |
| 270 to 273 | COc1cc2c(=O)n(CC3CCCO3)c3c4cc5c(cc4ncc3c2cc1OC)OCO5 (centres undefined) |
| 145 to 146 | Cc1ccc(-c2ccc3c(c2)C=C(C(=O)Nc2ccc(CSCc4ccccc4)cc2)CCO3)cc1 |
| 153 to 158 | CC(C)(COC(c1ccccc1)(c1ccccc1)c1ccccc1)C(=O)O |
| 195 to 196 | CCCc1nc2cccc(C(=O)OC)c2n1Cc1ccc(-c2ccccc2-c2nnn[nH]2)cc1 |
| 112 | O=S1(=O)c2cccc3cccc(c23)N1CCCN1CCN(c2ccccc2F)CC1 |
| 176 to 177 | Cn1cc(Oc2ccccc2)c(=O)c(-c2ccccc2)c1 |
| > 295 | CCN(CC)C(=O)C(=O)c1c[nH]c2c1ccc1c3ccccc3[nH]c12 |
| 201 to 202 | Cc1cc2c(cc1OCc1ccccc1)OC[C@@H](N1CCC(O)(c3ccc(F)cc3)CC1)[C@H]2O (relative stereo) |
| 253 to 254 | NC(=O)CN1C(=O)OCc2cc(Br)ccc21 |
| 176 to 180 | CC(C)(C)OC(=O)N1CCC(O)(CS(N)(=O)=O)CC1 |
| 210 to 212 | CN(C)c1ccc(NC(=O)N(CC2CCCCC2)C[C@H]2CC[C@H](CN(CC3CCCCC3)C(=O)Nc3ccc(N(C)C)cc3)CC2)cc1 |
| 103 to 107 | COc1cccc2cc(CNCCNC(=O)C34CC5CC(CC3C5)C4)oc12 |
| 188 to 189 | CC(=NC(C#N)=C(N)C#N)c1ccc2ccccc2c1 |
| 138 to 140 | Cc1ccc(C)c(C2C(=O)CC(C)C2=O)c1 (centres undefined) |
| 188 to 191 | CCCCN1CCC(CNC(=O)c2cc(Cl)c(N)n3cc(C)nc23)CC1 |
| 104 to 105 | CCOc1ccc(C2(C(=O)O)CC2(C)C)cc1 (centres undefined) |
| 55 to 58 | CCOC(=O)C(=O)Nc1ccc(Cl)cc1C(F)(F)F |
| 110 to 114 | COCCNC1CCc2cc(Nc3ncc(Cl)c(Nc4c(OC)ccc5c4CN(S(C)(=O)=O)CC(=O)N5)n3)c(OC)cc2CC1 (centres undefined) |

| melting point [°C] | Structure (SMILES) |
| --- | --- |
| 185 | CCOC(=O)C1=C(C)Nc2nc(N3CCOCC3)nc(N3CCOCC3)c2C1c1cccnc1Cl (centres undefined) |
| 136 to 138 | CC(O)C(C)(C)NC(=S)NC(=O)c1ccccc1 (centres undefined) |
| 82 to 83 | COC(=O)c1cc(-c2nn(C)c(SC)c2C)c(F)cc1Cl |
| 124 | CC(C)(C)C(=O)C(Cc1ccc(Cl)cc1)n1cncn1 (centres undefined) |
| 109 to 110 | CN1CCCCC(C2=CC(=O)CCC2)C1=O (centres undefined) |
| 103 to 105 | CCC(=O)NCc1ccc(CN2CCN(c3ncccn3)CC2)cc1 |
| 131 to 133 | COc1cc(I)c(C(=O)OC(C)COC(=O)c2ccc3c(c2I)OCO3)cc1OC (centres undefined) |
| > 300 | Cc1ccc2c(=O)cc(C(N)=O)oc2c1 |
| 130 to 132 | CCCCOCCOc1ccc(-c2ccc3c(c2)C=C(C(=O)Nc2ccc(SCc4nncn4CC(C)C)cc2)CCN3CCC)cc1 |
| 184 | COc1ccc(CCNc2ncnc3occ(C)c23)cc1 |
| 272 to 274 | O=C(O)C1=Cc2cc(Cl)c(Sc3ccccc3)cc2OC1C(F)(F)F (centres undefined) |
| 122 to 124 | CC(C)(C)C(O)C(=Cc1ccc2ccccc2c1)n1cncn1 (centres undefined) |
| 194 to 195 | OP(O)C(NC(c1ccccc1)c1ccccc1)c1ccc2c(c1)OCO2 (centres undefined) |
| > 260 | COc1ccc2c(c1)C(=O)c1sc(-c3ccccc3)nc1C2=O |
| 300 | COC(=O)Nc1cn2cc(S(=O)(=O)c3ccccc3)ccc2n1 |
| 177 | Cc1csc(NC(=O)C2=C(O)c3ccc4ccccc4c3S(=O)(=O)N2C)n1 |
| 118 to 119 | CCCCNC(=O)Nc1ccc(C)cc1 |
| 106 to 109 | O=C(c1ccc(Cl)cc1)c1ccc[nH]1 |
| 128 to 129 | CC1(C)CN(Cc2ccccc2[N+](=O)[O-])C(=O)S1 |
| 124 to 127 | CCCCCCC(O)CNCCCCCCNCC(O)CCCCCC (centres undefined) |
| 170 to 173 | CC(=O)N1Cc2c(n(-c3cccc(Cl)c3)c3ncccc3c2=O)C1 |
| 237 to 238 | CO/N=C/C1=NNC(=O)N(/N=C/c2cccnc2)C1 |
| 78 to 79 | C=CCNc1nc(NCC=C)c2cc(Cl)ccc2n1 |

| melting point [°C] | Structure (SMILES) |
| --- | --- |
| 152 to 154 | Ic1cccc2cc3ccccc3cc12 |
| 228 to 231 | COc1ccc(/C=C/c2nc3ncccc3c(=O)o2)cc1OC |
| 85 to 87 | CCCCNc1nc(C)c(C(=O)OCC)c2c1nnn2CC |
| 50 to 53 | O=[N+]([O-])c1ccc(F)c(CO)c1 |
| 98 to 100 | COc1ccc2c(c1)CC(C(=O)O)O2 (racemic) |
| 229 to 231 | COc1ccc2c(c1)c1c3c(c(-c4c(Cl)cccc4Cl)cc1n2CCO)C(=O)NC3=O |
| 86 to 87 | Clc1ccc(-c2nc(Br)cnc2OCC2CC2)cc1 |
| 63 to 64 | Clc1ccc(C(Cl)Cl)c(C(Cl)Cl)c1 |
| 119 to 121 | CC(C)(c1ccccc1)c1ccc(O)c(-n2nc3ccccc3n2)c1 |
| 142 | O=C(O)c1ccc(C(F)(F)F)cc1-c1ccc2c(c1)OC[C@H](Cc1ccccc1)[C@H]2O |
| > 260 | O=C(NCc1ccc(Cl)cc1)c1cn2c3c(cc(CN4CCOCC4)cc3c1=O)OC(c1ccc(O)cc1)C2 (centres undefined) |
| 140 to 145 | CC(C)(C)Nc1cc(N2CCNCC2)nc(N2CCCC2)n1 |
| 98 to 99 | COc1ccc(C2(O)c3c(C)c(NC(=O)CC(C)(C)C)c(C)c(C)c3OC2(C)C)cc1 (centres undefined) |
| 105 | Cc1ccnc(-c2ccc(C)c(-c3ccccc3)n2)n1 |
| 159 to 162 | CCOC(=O)C(=Cc1c[nH]c2cc(C)ccc12)NC(C)=O |
| 297 to 299 | COc1cc2c(cc1OC)-c1cc(Nc3c(C)cccc3C)nc(=O)n1CC2 |
| 135 | COC(=O)CCCC#Cc1cc(Cl)ccc1NS(=O)(=O)c1ccc2nc(N)oc2c1 |
| 115 to 117 | CC1(CCC(O)(c2ccccc2)c2ccccc2)CCCCC12OCCO2 (centres undefined) |
| 122 to 124 | Cc1nc(C(O)(c2nc(C)c(C)s2)C(F)(F)F)sc1C |
| 152 to 154 | CC(O)(c1ccccc1)C1CCN1C(c1ccccc1)c1ccccc1 (centres undefined) |
| 247 to 248 | NC(=O)COc1ccc(C(=O)CN2CCN(c3ccncc3)CC2)cc1 |
| 124 to 125 | CN(CCOc1ccc(CCCN2C(=O)COC2=O)cc1F)c1ccccn1 |
| > 300 | Cc1ccc2c(S(C)(=O)=O)cn(CC3=NCCN3)c2c1 |

| Structure (SMILES) | melting point [°C] |
| --- | --- |
| CN(C)C1(c2ccccc2)CCC2(CC1)NCCc1c2[nH]c2ccc(-c3ccncc3)cc12 (centres undefined) | 190 to 197 |
| COc1cc2c(C3=CCN(C[C@H](O)COc4cccc5[nH]ccc45)CC3)c[nH]c2cc1Cl | 115 to 120 |
| CCCN1C(=O)C(C)(C)N=C(c2ccccc2F)c2cc([N+](=O)[O-])cc(Cl)c21 | 178 to 179 |
| C[C@@H]1N(c2ccc(C#N)c(C(F)(F)F)c2)C(=O)C[C@]1(C)O | 134 to 137 |
| CC1(Br)CCCNC1=O (centres undefined) | 107 to 109 |
| CC(C)NS(=O)(=O)c1ccc(N2CCC(N3C(=O)OCc4ccccc43)CC2)c([N+](=O)[O-])c1 | 168 |
| CCOC1(C)Oc2cccc(OC(=O)NC)c2O1 (centres undefined) | 97 to 98.5 |
